Results as given in PMC8722715 (Frontiers in Cell and Developmental Biology, 2021).

Tests used:
hNaV1.7 channel = biological target: T1, hNaV1.7 channel (Homo sapiens, UniProt Q15858); test: Automated patch-clamp block of hNaV1.7 peak Na+ current in CHO cells; format: cell-based; details: for IC50: CHO cells stably expressing hNaV1.7, SyncroPatch 384 PE whole-cell, holding -100 mV, -10 mV test pulse 50 ms every 5 s, room temperature 18-22°C, 0.3% BSA, steady state or end of 15-min application, mean, S.E.M. and n cells; for hNaV1.7 IC50 versus WT: ratio of analogue mean IC50 to HwTx-IV WT mean IC50 on hNaV1.7
T1 construct: expressed in transfected cells
T1 sequence (Q15858 whole entry): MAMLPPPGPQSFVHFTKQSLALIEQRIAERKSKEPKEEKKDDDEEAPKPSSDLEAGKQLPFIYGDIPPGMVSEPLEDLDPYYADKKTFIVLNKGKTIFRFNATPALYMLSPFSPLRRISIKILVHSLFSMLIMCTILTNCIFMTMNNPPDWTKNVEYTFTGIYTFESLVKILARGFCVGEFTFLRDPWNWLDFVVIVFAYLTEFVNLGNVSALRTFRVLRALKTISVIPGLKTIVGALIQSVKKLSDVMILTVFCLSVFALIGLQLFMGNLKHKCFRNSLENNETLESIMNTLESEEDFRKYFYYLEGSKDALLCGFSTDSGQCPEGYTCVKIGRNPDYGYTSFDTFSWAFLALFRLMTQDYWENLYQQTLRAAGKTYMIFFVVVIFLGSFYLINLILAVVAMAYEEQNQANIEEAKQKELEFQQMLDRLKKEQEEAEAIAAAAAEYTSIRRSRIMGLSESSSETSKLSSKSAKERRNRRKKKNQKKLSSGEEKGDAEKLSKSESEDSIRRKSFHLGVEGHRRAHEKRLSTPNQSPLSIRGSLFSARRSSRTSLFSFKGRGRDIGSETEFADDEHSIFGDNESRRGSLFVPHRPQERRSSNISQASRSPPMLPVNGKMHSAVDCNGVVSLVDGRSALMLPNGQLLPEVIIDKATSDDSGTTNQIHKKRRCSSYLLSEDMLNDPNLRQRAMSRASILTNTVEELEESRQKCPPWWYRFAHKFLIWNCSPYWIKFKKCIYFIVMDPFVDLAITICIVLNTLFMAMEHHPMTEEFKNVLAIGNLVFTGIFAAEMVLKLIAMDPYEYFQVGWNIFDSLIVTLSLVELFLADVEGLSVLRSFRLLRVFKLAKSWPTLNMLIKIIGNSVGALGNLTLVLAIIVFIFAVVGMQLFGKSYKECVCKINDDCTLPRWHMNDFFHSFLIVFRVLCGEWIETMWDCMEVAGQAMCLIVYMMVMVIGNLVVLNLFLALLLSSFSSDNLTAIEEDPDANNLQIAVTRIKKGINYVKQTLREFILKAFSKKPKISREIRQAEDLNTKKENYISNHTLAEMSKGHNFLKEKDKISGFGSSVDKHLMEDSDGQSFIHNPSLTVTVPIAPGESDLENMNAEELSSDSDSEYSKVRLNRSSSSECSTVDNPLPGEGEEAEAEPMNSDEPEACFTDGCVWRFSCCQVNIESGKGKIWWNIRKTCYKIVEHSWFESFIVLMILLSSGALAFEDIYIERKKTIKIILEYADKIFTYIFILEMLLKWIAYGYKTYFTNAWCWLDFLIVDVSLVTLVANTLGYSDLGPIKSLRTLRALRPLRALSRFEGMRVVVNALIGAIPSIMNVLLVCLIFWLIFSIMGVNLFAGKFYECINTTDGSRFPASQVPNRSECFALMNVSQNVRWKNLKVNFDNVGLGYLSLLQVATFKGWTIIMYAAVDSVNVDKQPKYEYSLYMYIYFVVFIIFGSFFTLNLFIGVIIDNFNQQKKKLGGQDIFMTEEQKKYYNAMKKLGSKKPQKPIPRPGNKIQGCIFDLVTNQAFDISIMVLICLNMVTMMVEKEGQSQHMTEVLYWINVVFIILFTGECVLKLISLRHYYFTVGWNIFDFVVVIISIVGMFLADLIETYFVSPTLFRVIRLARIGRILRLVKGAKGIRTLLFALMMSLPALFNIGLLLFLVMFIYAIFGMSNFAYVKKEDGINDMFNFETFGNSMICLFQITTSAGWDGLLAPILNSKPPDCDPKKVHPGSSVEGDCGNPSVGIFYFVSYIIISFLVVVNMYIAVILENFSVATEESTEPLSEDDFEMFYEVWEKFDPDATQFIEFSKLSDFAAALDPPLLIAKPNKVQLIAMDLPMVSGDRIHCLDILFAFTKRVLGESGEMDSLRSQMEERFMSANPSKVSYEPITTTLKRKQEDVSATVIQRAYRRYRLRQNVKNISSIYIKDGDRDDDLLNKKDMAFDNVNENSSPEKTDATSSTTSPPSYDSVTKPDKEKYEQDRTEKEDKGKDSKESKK
Method in brief: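 Automated whole-cell patch clamp on CHO cells stably expressing hNaV1.7, held at −100 mV at 18–22°C. Peak current evoked by 50 ms steps to −10 or 0 mV every 5 s; HwTx-IV analogues applied in extracellular solution with 0.3% BSA. Percent inhibition taken at steady-state block or after 15 min application.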

hNaV1.6 channel = biological target: T2, hNaV1.6 channel (Homo sapiens, UniProt Q9UQD0); test: Automated patch-clamp block of hNaV1.6 peak Na+ current in HEK-293 cells; format: cell-based; details: for IC50: HEK-293 cells stably expressing hNaV1.6, SyncroPatch 384 PE whole-cell, holding -100 mV, 0 mV test pulse 50 ms every 5 s, room temperature 18-22°C, 0.3% BSA, steady state or end of 15-min application, mean, S.E.M. and n cells; for hNaV1.6 IC50 versus WT: ratio of analogue mean IC50 to HwTx-IV WT mean IC50 on hNaV1.6
T2 construct: expressed in transfected cells
T2 sequence (Q9UQD0 whole entry): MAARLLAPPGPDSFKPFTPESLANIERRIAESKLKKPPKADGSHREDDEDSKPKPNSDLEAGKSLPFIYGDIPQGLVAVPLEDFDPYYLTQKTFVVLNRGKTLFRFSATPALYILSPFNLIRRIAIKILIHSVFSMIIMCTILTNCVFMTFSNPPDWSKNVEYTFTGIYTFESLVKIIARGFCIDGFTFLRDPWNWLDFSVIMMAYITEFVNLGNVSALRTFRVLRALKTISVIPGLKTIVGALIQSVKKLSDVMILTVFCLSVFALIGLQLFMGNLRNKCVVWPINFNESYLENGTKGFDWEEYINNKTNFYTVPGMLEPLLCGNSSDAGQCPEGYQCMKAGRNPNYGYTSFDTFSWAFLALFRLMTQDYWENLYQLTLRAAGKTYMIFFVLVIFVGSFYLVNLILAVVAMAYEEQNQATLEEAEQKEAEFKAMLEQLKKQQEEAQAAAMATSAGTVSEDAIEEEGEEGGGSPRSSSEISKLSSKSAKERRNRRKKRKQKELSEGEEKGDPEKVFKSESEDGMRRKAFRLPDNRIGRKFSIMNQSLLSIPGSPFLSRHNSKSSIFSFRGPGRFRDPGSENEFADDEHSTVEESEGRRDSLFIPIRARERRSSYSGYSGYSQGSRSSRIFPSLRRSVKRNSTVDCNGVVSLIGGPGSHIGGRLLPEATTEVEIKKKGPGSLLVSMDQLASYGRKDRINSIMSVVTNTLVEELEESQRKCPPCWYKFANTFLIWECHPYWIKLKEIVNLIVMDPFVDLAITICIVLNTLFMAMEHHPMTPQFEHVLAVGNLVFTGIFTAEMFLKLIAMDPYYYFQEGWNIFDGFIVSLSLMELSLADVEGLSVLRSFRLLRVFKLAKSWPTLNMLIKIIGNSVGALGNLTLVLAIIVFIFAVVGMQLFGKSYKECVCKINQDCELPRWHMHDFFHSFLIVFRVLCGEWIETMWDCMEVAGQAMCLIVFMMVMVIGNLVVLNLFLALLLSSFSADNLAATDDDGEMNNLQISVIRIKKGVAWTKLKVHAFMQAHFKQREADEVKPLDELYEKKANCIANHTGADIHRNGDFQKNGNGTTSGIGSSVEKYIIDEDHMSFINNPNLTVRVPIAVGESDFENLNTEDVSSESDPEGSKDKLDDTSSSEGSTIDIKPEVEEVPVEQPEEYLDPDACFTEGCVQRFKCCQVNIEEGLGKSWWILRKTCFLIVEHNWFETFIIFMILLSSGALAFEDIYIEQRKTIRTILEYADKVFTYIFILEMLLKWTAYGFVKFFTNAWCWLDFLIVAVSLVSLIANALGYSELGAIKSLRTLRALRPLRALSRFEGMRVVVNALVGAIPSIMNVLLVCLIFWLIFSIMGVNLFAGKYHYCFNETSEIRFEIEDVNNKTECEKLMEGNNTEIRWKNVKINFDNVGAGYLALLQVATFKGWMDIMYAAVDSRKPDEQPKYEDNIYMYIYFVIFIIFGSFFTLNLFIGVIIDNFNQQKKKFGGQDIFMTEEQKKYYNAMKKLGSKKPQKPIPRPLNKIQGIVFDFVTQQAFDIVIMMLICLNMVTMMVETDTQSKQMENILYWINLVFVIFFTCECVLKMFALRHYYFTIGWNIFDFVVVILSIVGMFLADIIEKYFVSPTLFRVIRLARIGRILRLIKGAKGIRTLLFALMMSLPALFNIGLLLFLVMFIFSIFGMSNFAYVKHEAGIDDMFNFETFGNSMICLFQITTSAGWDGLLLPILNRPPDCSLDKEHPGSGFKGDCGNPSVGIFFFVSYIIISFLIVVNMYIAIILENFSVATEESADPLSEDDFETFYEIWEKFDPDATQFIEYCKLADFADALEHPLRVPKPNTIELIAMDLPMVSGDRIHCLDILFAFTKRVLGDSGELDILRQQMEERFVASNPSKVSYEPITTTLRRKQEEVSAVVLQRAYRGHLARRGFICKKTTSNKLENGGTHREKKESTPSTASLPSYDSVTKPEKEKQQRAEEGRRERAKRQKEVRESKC
Method in brief: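 Whole-cell automated patch clamp at −100 mV holding, room temperature (18–22°C), CsF-based internal, 0.3% BSA in external solution; 50 ms steps to −10 or 0 mV every 5 s. Percent peak-current inhibition taken at steady-state block or after 15 min application, used for dose-response curves.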

| SMILES | IC50 (hNaV1.7 channel) [nM] | hNaV1.7 IC50 versus WT (hNaV1.7 channel) | IC50 (hNaV1.6 channel) [nM] | hNaV1.6 IC50 versus WT (hNaV1.6 channel) |
| --- | --- | --- | --- | --- |
| CC[C@H](C)[C@H](NC(=O)[C@H](CCC(N)=O)NC(=O)[C@H](Cc1ccc(O)cc1)NC(=O)[C@H](CCCCN)NC(=O)[C@@H]1CSSC[C@@H]2NC(=O)[C@H](CCC(N)=O)NC(=O)[C@H](CC(=O)O)NC(=O)[C@H](CC(N)=O)NC(=O)[C@H](CO)NC(=O)[C@@H]3CCCN3C(=O)[C@H](CC(N)=O)NC(=O)[C@@H]3CSSC[C@H](NC(=O)[C@H](C(C)C)NC(=O)[C@H](CC(C)C)NC(=O)[C@H](CCCCN)NC(=O)[C@H](CO)NC(=O)[C@H](CO)NC(=O)[C@H](CCCCN)NC(=O)[C@H](CSSC[C@H](NC(=O)[C@@H](N)CCC(=O)O)C(=O)N[C@@H](CC(C)C)C(=O)N[C@@H](CCC(=O)O)C(=O)N[C@@H]([C@@H](C)CC)C(=O)N[C@@H](Cc4ccccc4)C(=O)N[C@@H](CCCCN)C(=O)N[C@@H](C)C(=O)N3)NC2=O)C(=O)N[C@@H](CO)C(=O)N[C@@H](C)C(=O)N[C@@H](CCCCN)C(=O)N[C@@H]([C@@H](C)O)C(=O)N[C@@H](CCCNC(=N)N)C(=O)N[C@@H](Cc2c[nH]c3ccccc23)C(=O)N1)C(N)=O [HwTx-IV R ^26A] | 112 | 11.28 | 614 | 2.71 |
| CC[C@H](C)[C@H](NC(=O)[C@H](CCC(N)=O)NC(=O)[C@H](Cc1ccc(O)cc1)NC(=O)[C@H](CCCCN)NC(=O)[C@@H]1CSSC[C@@H]2NC(=O)[C@H](CCC(N)=O)NC(=O)[C@H](CC(=O)O)NC(=O)[C@H](CC(N)=O)NC(=O)[C@H](CO)NC(=O)[C@@H]3CCCN3C(=O)[C@H](CC(N)=O)NC(=O)[C@@H]3CSSC[C@H](NC(=O)[C@H](C(C)C)NC(=O)[C@H](CC(C)C)NC(=O)[C@H](CCCCN)NC(=O)[C@H](CO)NC(=O)[C@H](CO)NC(=O)[C@H](CCCCN)NC(=O)[C@H](CSSC[C@H](NC(=O)[C@@H](N)CCC(=O)O)C(=O)N[C@@H](CC(C)C)C(=O)N[C@@H](CCC(=O)O)C(=O)N[C@@H]([C@@H](C)CC)C(=O)N[C@@H](Cc4ccccc4)C(=O)N[C@@H](CCCCN)C(=O)N[C@@H](C)C(=O)N3)NC2=O)C(=O)N[C@@H](CO)C(=O)N[C@@H](CCC(N)=O)C(=O)N[C@@H](CCCCN)C(=O)N[C@@H]([C@@H](C)O)C(=O)N[C@@H](CCCNC(=N)N)C(=O)N[C@@H](Cc2c[nH]c3ccccc23)C(=O)N1)C(N)=O [HwTx-IV R ^26Q] | 141 | 14.28 | > 1000 | >4.4 |
| CC[C@H](C)[C@H](NC(=O)[C@H](CCC(N)=O)NC(=O)[C@H](Cc1c[nH]c2ccccc12)NC(=O)[C@H](CCCCN)NC(=O)[C@@H]1CSSC[C@@H]2NC(=O)[C@H](CCC(N)=O)NC(=O)[C@H](CC(=O)O)NC(=O)[C@H](CC(N)=O)NC(=O)[C@H](CO)NC(=O)[C@@H]3CCCN3C(=O)[C@H](CC(N)=O)NC(=O)[C@@H]3CSSC[C@H](NC(=O)[C@H](C(C)C)NC(=O)[C@H](CC(C)C)NC(=O)[C@H](CCCCN)NC(=O)[C@H](CO)NC(=O)[C@H](CO)NC(=O)[C@H](CCCCN)NC(=O)[C@H](CSSC[C@H](NC(=O)[C@@H](N)CCC(=O)O)C(=O)N[C@@H](CC(C)C)C(=O)N[C@@H](CCC(=O)O)C(=O)N[C@@H]([C@@H](C)CC)C(=O)N[C@@H](Cc4ccccc4)C(=O)N[C@@H](CCCCN)C(=O)N[C@@H](C)C(=O)N3)NC2=O)C(=O)N[C@@H](CO)C(=O)N[C@@H](CCCNC(=N)N)C(=O)N[C@@H](CCCCN)C(=O)N[C@@H]([C@@H](C)O)C(=O)N[C@@H](CCCNC(=N)N)C(=O)N[C@@H](Cc2c[nH]c3ccccc23)C(=O)N1)C(N)=O [HwTx-IV Y^33W] | 22.2 | 2.24 | 207 | 0.91 |
